Data taken from US20110009399A1, “ORGANIC COMPOUNDS” (priority 2007, published 2011).

target: T1, renin (Homo sapiens, UniProt P00797); test: in vitro test of Nussberger et al.: formation of angiotensin I in human plasma, radioimmunoassay; assay type: biochemical; settings: values given as 'in the range of about', read-out: IC50, inhibition of the formation of angiotensin I
T1 construct: This test measures the formation of angiotensin I in human plasma; from tissue; host or cells: human plasma
T1 sequence (P00797 67-406): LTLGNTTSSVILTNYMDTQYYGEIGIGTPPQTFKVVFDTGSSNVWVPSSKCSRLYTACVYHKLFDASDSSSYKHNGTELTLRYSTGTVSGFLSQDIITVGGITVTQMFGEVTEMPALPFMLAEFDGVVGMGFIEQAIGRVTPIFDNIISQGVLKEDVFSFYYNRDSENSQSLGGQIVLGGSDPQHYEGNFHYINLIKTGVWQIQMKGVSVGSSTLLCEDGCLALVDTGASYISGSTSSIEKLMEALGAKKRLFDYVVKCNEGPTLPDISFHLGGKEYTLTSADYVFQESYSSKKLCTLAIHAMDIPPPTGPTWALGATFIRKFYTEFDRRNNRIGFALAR
Experimental: The effect of renin inhibitors is detected inter alia experimentally by means of in vitro tests where the reduction in the formation of angiotensin I is measured in various systems (human plasma, purified human renin together with synthetic or natural renin substrate). The following in vitro test of Nussberger et al. (1987) J. Cardiovascular Pharmacol., Vol. 9, pp. 39-44, is used inter alia. This test measures the formation of angiotensin I in human plasma. The amount of angiotensin I formed is determined in a subsequent radioimmunoassay. The effect of inhibitors on the formation of angiotensin I is tested in this system by adding various concentrations of these substances. […] The compounds of the present invention show inhibitory effects in the in vitro systems at minimal concentrations of about 10^−6 to about 10^−10 mol/l.

IC50, 1 to 20 nM:
COCCCN1CCOc2ccc(CO[C@H]3CNCC[C@@]34OCc3cc(COC[C@@H](C)COC)ccc34)cc21 [Example 7, (1S,3′S)-5-({[(2S)-3-methoxy-2-methylpropyl]oxy}methyl)-3′-{[4-(3-methoxy-propyl)-3,4-dihydro-2H-1,4-benzoxazin-6-yl]methoxy}-3H-spiro[2-benzofuran-1,4′-piperidine]]
CCO[C@H](C)COCc1ccc2c(c1)CCO[C@@]21CCNC[C@@H]1OCc1ccc2c(c1)N(CCCOC)CCO2 [Example 2, (1S,3′S)-6-({[(2R)-2-Ethoxypropyl]oxy}methyl)-3′-{[4-(3-methoxypropyl)-3,4-dihydro-2H-1,4-benzoxazin-6-yl]methoxy}-3,4-dihydrospiro[isochromene-1,4′-piperidine]]
CCOC(C)COCc1ccc2c(c1)OCCOC21CCNCC1OCc1ccc2c(c1)N(CCCOC)CCO2 [Example 14, (3′S,5S)-8-({[(2R)-2-Ethoxypropyl]oxy}methyl)-3′-{[4-(3-methoxypropyl)-3,4-dihydro-2H-1,4-benzoxazin-6-yl]methoxy}-2,3-dihydrospiro[1,4-benzo-dioxepine-5,4′-piperidine]]
